Measurements published in the supplement of paper PMC10307832.

Assays:
Test in all cases: relative viability (nuclei count vs DMSO), 5 days (fraction); higher = more cells survive
Vorinostat + Foretinib = compound: O=C(CCCCCCC(=O)Nc1ccccc1)NO [Vorinostat] + COc1cc2c(Oc3ccc(NC(=O)C4(C(=O)Nc5ccc(F)cc5)CC4)cc3F)ccnc2cc1OCCCN1CCOCC1 [Foretinib] (partner 0.25 µM)
Summary of the method: (§1)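 After 5 days of treatment, lung cancer cells in 1536-well plates were fixed and stained in a single step (final 0.05% Triton X-100, 1% formaldehyde, 1 ug/ml Hoechst) and their nuclei counted on 4× images. Treatment had been applied by pin tool the day after seeding as one drug alone or as a fixed anchor-drug dose with five library-drug doses (not always all listed) in √10 steps. Relative viability is the nuclei count of treated wells divided by that of vehicle wells, and values are medians of duplicate plates.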

Vorinostat + Tozasertib = compound: O=C(CCCCCCC(=O)Nc1ccccc1)NO [Vorinostat] + Cc1cc(Nc2cc(N3CCN(C)CC3)nc(Sc3ccc(NC(=O)C4CC4)cc3)n2)n[nH]1 [Tozasertib] (partner 0.1 µM)
Summary of the method: as §1

Vorinostat + Decitabine = compound: O=C(CCCCCCC(=O)Nc1ccccc1)NO [Vorinostat] + Nc1ncn([C@H]2C[C@H](O)[C@@H](CO)O2)c(=O)n1 [Decitabine] (partner 2 µM)
Summary of the method: as §1

Vorinostat + Pemetrexed = compound: O=C(CCCCCCC(=O)Nc1ccccc1)NO [Vorinostat] + Nc1nc2[nH]cc(CCc3ccc(C(=O)N[C@@H](CCC(=O)O)C(=O)O)cc3)c2c(=O)[nH]1 [Pemetrexed] (partner 0.2 µM)
Summary of the method: as §1

Vorinostat + AZD7762 = compound: O=C(CCCCCCC(=O)Nc1ccccc1)NO [Vorinostat] + NC(=O)Nc1cc(-c2cccc(F)c2)sc1C(=O)N[C@H]1CCCNC1 [AZD7762] (partner 0.2 µM)
Summary of the method: as §1

Vorinostat + Palbociclib = compound: O=C(CCCCCCC(=O)Nc1ccccc1)NO [Vorinostat] + CC(=O)c1c(C)c2cnc(Nc3ccc(N4CCNCC4)cn3)nc2n(C2CCCC2)c1=O [Palbociclib] (partner 0.5 µM)
Summary of the method: as §1

Vorinostat + Dasatinib = compound: O=C(CCCCCCC(=O)Nc1ccccc1)NO [Vorinostat] + Cc1nc(Nc2ncc(C(=O)Nc3c(C)cccc3Cl)s2)cc(N2CCN(CCO)CC2)n1 [Dasatinib] (partner 0.075 µM)
Summary of the method: as §1

Vorinostat + Trametinib = compound: O=C(CCCCCCC(=O)Nc1ccccc1)NO [Vorinostat] + CC(=O)Nc1cccc(-n2c(=O)n(C3CC3)c(=O)c3c(Nc4ccc(I)cc4F)n(C)c(=O)c(C)c32)c1 [Trametinib] (partner 0.02 µM)
Summary of the method: as §1

Vorinostat + OSI-027 = compound: O=C(CCCCCCC(=O)Nc1ccccc1)NO [Vorinostat] + COc1cccc2cc(-c3nc([C@H]4CC[C@H](C(=O)O)CC4)n4ncnc(N)c34)[nH]c12 [OSI-027] (partner 0.5 µM)
Summary of the method: as §1

Vorinostat + Olaparib = compound: O=C(CCCCCCC(=O)Nc1ccccc1)NO [Vorinostat] + O=C(c1cc(Cc2n[nH]c(=O)c3ccccc23)ccc1F)N1CCN(C(=O)C2CC2)CC1 [Olaparib] (partner 8 µM)
Summary of the method: as §1

Vorinostat + Luminespib = compound: O=C(CCCCCCC(=O)Nc1ccccc1)NO [Vorinostat] + CCNC(=O)c1noc(-c2cc(C(C)C)c(O)cc2O)c1-c1ccc(CN2CCOCC2)cc1 [Luminespib] (partner 0.01 µM)
Summary of the method: as §1

Vorinostat + Phenformin = compound: O=C(CCCCCCC(=O)Nc1ccccc1)NO [Vorinostat] + N=C(N)NC(=N)NCCc1ccccc1 [Phenformin] (partner 250 µM)
Summary of the method: as §1

Vorinostat = compound: O=C(CCCCCCC(=O)Nc1ccccc1)NO [Vorinostat]
Summary of the method: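 A plate was accepted only when its control CV was below 25% and the cells had doubled at least once. Viability is defined from nuclear counts as treated wells divided by vehicle wells, with the median taken across plates. That median covers lung cancer cell lines grown in 1536-well plates, dosed by pinning at five √10-spaced library-drug concentrations, and counted in MetaXpress from 4× Hoechst images after 5 days.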

Which relative viability (Vorinostat + Foretinib; first compound 0.253 µM) does the source give for NCI-H2342 here?
The relative viability was 0.975.

What about the relative viability (Vorinostat + Foretinib; first compound 0.8 µM) of the same cell line?
The relative viability was 1.07.

And the relative viability (Vorinostat + Foretinib; first compound 2.53 µM)?
The relative viability was 0.587.

And the relative viability (Vorinostat + Foretinib; first compound 8 µM)?
The relative viability was 0.385.

What about the relative viability (Vorinostat + Tozasertib; first compound 0.253 µM) of the same cell line?
The relative viability was 0.436.

And the relative viability (Vorinostat + Tozasertib; first compound 0.8 µM)?
The relative viability was 0.322.

What about the relative viability (Vorinostat + Tozasertib; first compound 2.53 µM) of the same cell line?
Its relative viability is 0.335.

What about the relative viability (Vorinostat + Tozasertib; first compound 8 µM) of the same cell line?
Its relative viability is 0.262.

And the relative viability (Vorinostat + Decitabine; first compound 0.253 µM)?
Its relative viability is 0.58.

And the relative viability (Vorinostat + Decitabine; first compound 0.8 µM)?
The relative viability was 0.715.

What about the relative viability (Vorinostat + Decitabine; first compound 2.53 µM) of the same cell line?
The relative viability was 0.529.

And the relative viability (Vorinostat + Decitabine; first compound 8 µM)?
Its relative viability is 0.391.

What about the relative viability (Vorinostat + Pemetrexed; first compound 0.253 µM) of the same cell line?
Its relative viability is 0.834.

What about the relative viability (Vorinostat + Pemetrexed; first compound 0.8 µM) of the same cell line?
The relative viability was 0.832.

And the relative viability (Vorinostat + Pemetrexed; first compound 2.53 µM)?
Its relative viability is 0.68.

What about the relative viability (Vorinostat + Pemetrexed; first compound 8 µM) of the same cell line?
The relative viability was 0.306.

And the relative viability (Vorinostat + AZD7762; first compound 0.253 µM)?
The relative viability was 0.431.

And the relative viability (Vorinostat + AZD7762; first compound 0.8 µM)?
Its relative viability is 0.575.

What about the relative viability (Vorinostat + AZD7762; first compound 2.53 µM) of the same cell line?
The relative viability was 0.347.

What about the relative viability (Vorinostat + AZD7762; first compound 8 µM) of the same cell line?
Its relative viability is 0.254.

What about the relative viability (Vorinostat + Palbociclib; first compound 0.253 µM) of the same cell line?
Its relative viability is 0.529.

What about the relative viability (Vorinostat + Palbociclib; first compound 0.8 µM) of the same cell line?
Its relative viability is 0.502.

What about the relative viability (Vorinostat + Palbociclib; first compound 2.53 µM) of the same cell line?
Its relative viability is 0.58.

What about the relative viability (Vorinostat + Palbociclib; first compound 8 µM) of the same cell line?
The relative viability was 0.488.

What about the relative viability (Vorinostat + Dasatinib; first compound 0.253 µM) of the same cell line?
Its relative viability is 0.304.

And the relative viability (Vorinostat + Dasatinib; first compound 0.8 µM)?
The relative viability was 0.315.

And the relative viability (Vorinostat + Dasatinib; first compound 2.53 µM)?
The relative viability was 0.274.

What about the relative viability (Vorinostat + Dasatinib; first compound 8 µM) of the same cell line?
Its relative viability is 0.28.

What about the relative viability (Vorinostat + Trametinib; first compound 0.253 µM) of the same cell line?
Its relative viability is 0.703.

And the relative viability (Vorinostat + Trametinib; first compound 0.8 µM)?
The relative viability was 0.774.

What about the relative viability (Vorinostat + Trametinib; first compound 2.53 µM) of the same cell line?
Its relative viability is 0.685.

And the relative viability (Vorinostat + Trametinib; first compound 8 µM)?
Its relative viability is 0.484.

And the relative viability (Vorinostat + OSI-027; first compound 0.253 µM)?
Its relative viability is 0.607.

And the relative viability (Vorinostat + OSI-027; first compound 0.8 µM)?
Its relative viability is 0.649.

What about the relative viability (Vorinostat + OSI-027; first compound 2.53 µM) of the same cell line?
Its relative viability is 0.524.

And the relative viability (Vorinostat + OSI-027; first compound 8 µM)?
The relative viability was 0.386.

And the relative viability (Vorinostat + Olaparib; first compound 0.253 µM)?
Its relative viability is 0.467.

What about the relative viability (Vorinostat + Olaparib; first compound 0.8 µM) of the same cell line?
Its relative viability is 0.496.

And the relative viability (Vorinostat + Olaparib; first compound 2.53 µM)?
Its relative viability is 0.308.

And the relative viability (Vorinostat + Olaparib; first compound 8 µM)?
The relative viability was 0.269.

And the relative viability (Vorinostat + Luminespib; first compound 0.253 µM)?
Its relative viability is 0.817.

And the relative viability (Vorinostat + Luminespib; first compound 0.8 µM)?
The relative viability was 0.589.

And the relative viability (Vorinostat + Luminespib; first compound 2.53 µM)?
The relative viability was 0.499.

What about the relative viability (Vorinostat + Luminespib; first compound 8 µM) of the same cell line?
Its relative viability is 0.391.

And the relative viability (Vorinostat + Phenformin; first compound 0.253 µM)?
The relative viability was 0.561.

What about the relative viability (Vorinostat + Phenformin; first compound 0.8 µM) of the same cell line?
Its relative viability is 0.653.

What about the relative viability (Vorinostat + Phenformin; first compound 2.53 µM) of the same cell line?
The relative viability was 0.573.

And the relative viability (Vorinostat + Phenformin; first compound 8 µM)?
The relative viability was 0.375.

What about the relative viability (Vorinostat; 0.253 µM) of the same cell line?
Its relative viability is 0.936.

What about the relative viability (Vorinostat; 0.8 µM) of the same cell line?
The relative viability was 1.02.

What about the relative viability (Vorinostat; 1 µM, anchor plate) of the same cell line?
The relative viability was 0.756.

What about the relative viability (Vorinostat; 2.53 µM) of the same cell line?
Its relative viability is 0.756.

What about the relative viability (Vorinostat; 8 µM) of the same cell line?
The relative viability was 0.458.
